PubChem BioAssay (NCI)
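Test compounds were applied to cells in 96-well plates for 48 hours at 5 doses. Abbreviation: GI50, concentration required for 50% inhibition of growth. TGI is the concentration that stops growth completely.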

Assays:
Assay in all cases: inhibition of tumour cell growth, NCI panel, 48 h
[1] = system: NCI-H23 lung
[2] = system: COLO 205 colon
[3] = system: SN12C renal
[4] = system: OVCAR-4 ovarian
[5] = system: HCT-116 colon
[6] = system: EKVX NSCLC
[7] = system: DU-145 prostate
[8] = system: 786-0 renal
[9] = system: CAKI-1 renal
[10] = system: NCI/ADR-RES ovarian

Compound `O=C(Nc1cccc(-c2ccc(Cl)c(C(F)(F)F)c2)c1)C1CCN(Cc2cccc3cccnc23)CC1` has a GI50 [1] of 1.64 µM, a TGI [1] of 3.19 µM and a GI50 [2] of 1.45 µM. For the same compound, the TGI [2] was 3.12 µM, the GI50 [3] was 1.6 µM and the TGI [3] was 3.03 µM. The GI50 [4] was 1.59 µM, the TGI [4] was 3.08 µM and the GI50 [5] was 1.26 µM. For the same compound, the TGI [5] was 2.76 µM, the GI50 [6] was 1.73 µM and the TGI [6] was 3.15 µM. It also gave a GI50 [7] of 1.79 µM, a TGI [7] of 3.21 µM and a GI50 [8] of 1.7 µM. For the same compound, the TGI [8] was 3.26 µM, the GI50 [9] was 1.61 µM and the TGI [9] was 2.97 µM. For the same compound, the GI50 [10] was 1.69 µM and the TGI [10] was 3.31 µM.

`N#Cc1c(N)nc(N2CCOCC2)c(C#N)c1-c1ccccn1` was tested, and the GI50 [1] was > 100 µM, the TGI [1] was > 100 µM and the GI50 [2] was > 100 µM. For the same compound, the TGI [2] was > 100 µM, the GI50 [3] was > 100 µM and the TGI [3] was > 100 µM. The GI50 [4] was > 100 µM, the TGI [4] was > 100 µM and the GI50 [5] was > 100 µM. For the same compound, the TGI [5] was > 100 µM, the GI50 [6] was > 100 µM and the TGI [6] was > 100 µM. For the same compound, the GI50 [7] was > 100 µM, the TGI [7] was > 100 µM and the GI50 [8] was > 100 µM. For the same compound, the TGI [8] was > 100 µM, the GI50 [9] was > 100 µM and the TGI [9] was > 100 µM. For the same compound, the GI50 [10] was > 100 µM and the TGI [10] was > 100 µM.

In the case of `CC1=C(/C=C/C(C)=C/C=C/C(C)=C/C(=O)O)C(C)(C)CCC1`, the TGI [1] is reported as 79.3 µM, the TGI [2] is reported as 63.6 µM and the TGI [3] is reported as 72.1 µM. For the same compound, the TGI [4] was > 100 µM, the TGI [5] was 64.2 µM and the TGI [6] was > 100 µM. The TGI [7] was > 100 µM, the TGI [8] was 68.1 µM and the TGI [9] was > 93.2 µM. For the same compound, the TGI [10] was 70 µM.

For `O=C(Nc1cccc(Cl)c1)c1cccc(NC2=C(Cl)C(=O)N(Cc3ccccc3)C2=O)c1`, the GI50 [1] was > 100 µM, the TGI [1] was > 100 µM and the GI50 [2] was > 100 µM. The TGI [2] was > 100 µM, the GI50 [3] was 2.62 µM and the TGI [3] was 56.9 µM. For the same compound, the GI50 [4] was 68.5 µM, the TGI [4] was > 100 µM and the GI50 [5] was 10.1 µM. For the same compound, the TGI [5] was 42.4 µM, the GI50 [6] was > 100 µM and the TGI [6] was > 100 µM. For the same compound, the GI50 [7] was 46 µM, the TGI [7] was > 100 µM and the GI50 [8] was 35.8 µM. The TGI [8] was > 100 µM, the GI50 [9] was 15 µM and the TGI [9] was 49.1 µM. For the same compound, the GI50 [10] was 89.8 µM and the TGI [10] was > 100 µM.

In the case of `CC(=O)c1c(CO[N+](=O)[O-])n([O-])c2ccccc2[n+]1=O`, the TGI [1] is reported as > 100 µM, the TGI [2] is reported as > 100 µM and the TGI [3] is reported as > 100 µM. For the same compound, the TGI [4] was > 100 µM, the TGI [5] was > 100 µM and the TGI [6] was > 100 µM. The TGI [7] was > 100 µM, the TGI [8] was > 100 µM and the TGI [9] was > 100 µM. The TGI [10] was > 100 µM.

`CN1CCN(c2ccc(NC(=O)c3cncnc3Nc3ccc(OCc4ccccn4)c(Cl)c3)cc2)CC1` showed a GI50 [1] of 5.07 µM, a TGI [1] of 11.5 µM and a GI50 [2] of 1.41 µM. For the same compound, the TGI [2] was 6.19 µM, the GI50 [3] was 3.93 µM and the TGI [3] was 8.72 µM. The GI50 [4] was 4.69 µM, the TGI [4] was 12.4 µM and the GI50 [5] was 0.788 µM. It also gave a TGI [5] of 1.91 µM, a GI50 [6] of 6.25 µM and a TGI [6] of 14.6 µM. It also gave a GI50 [7] of 4.28 µM, a TGI [7] of 8.8 µM and a GI50 [8] of 0.763 µM. It also gave a TGI [8] of 1.68 µM, a GI50 [9] of 4.78 µM and a TGI [9] of 11.7 µM. It also gave a GI50 [10] of 6.28 µM and a TGI [10] of 17.1 µM.

For `O=C(NO)[C@@H](Cc1ccccc1)NS(=O)(=O)c1ccc(-c2ccccc2)cc1`, the GI50 [1] was > 25 µM, the TGI [1] was > 25 µM and the GI50 [2] was > 25 µM. The TGI [2] was > 25 µM, the GI50 [3] was > 25 µM and the TGI [3] was > 25 µM. The GI50 [4] was > 25 µM, the TGI [4] was > 25 µM and the GI50 [5] was 11.7 µM. The TGI [5] was > 25 µM, the GI50 [6] was 15.7 µM and the TGI [6] was > 25 µM. The GI50 [7] was 11.1 µM, the TGI [7] was > 25 µM and the GI50 [8] was 11.9 µM. For the same compound, the TGI [8] was > 25 µM, the GI50 [9] was 9.6 µM and the TGI [9] was > 25 µM. The GI50 [10] was > 25 µM and the TGI [10] was > 25 µM.
